Literature values as cited in patent US20040054006A1 (priority 1999, published 2004).

Key:
[1] = mice, up to 1% of diet for 2 weeks or for over 4 weeks
creatine kinase = conditions: forward reaction, both in vitro and in vivo
[2] = newly hatched chicks, diet containing 1% cyclocreatine
[3] = fed to mice, rats and chicks
[4] = feeding animals cyclocreatine, e.g. 1% dietary
[5] = rats, dietary 1% cyclocreatine
[6] = 1% dietary cyclocreatine
[7] = intravenous injection, up to 8 grams/day, patients with cardiac diseases

Compound | gross adverse effects [1] | phosphorylation by creatine kinase (creatine kinase) | growth versus control chicks [2] | mortality ([2]; in the presence of antibiotics) | tolerability [3] | accumulation in different organs [4] | tissue uptake [5] | antiviral activity [6] | adverse side effects [7]
NC1=NCCN1CC(=O)O [cyclocreatine, 1-carboxymethyl-2-iminoimidazolidine] | without gross adverse effects | phosphorylated efficiently | grew more slowly than control chicks | without significant mortality | well-tolerated | accumulation of cyclocreatine in different organs in mM concentrations | taken up by muscle, heart and brain | antiviral activity of cyclocreatine is observed | 
N-phosphoryl creatine [Creatine phosphate] |  |  |  |  |  |  |  |  | no adverse side effects
